Experiments:
[1] = tested on: MicroTom tomato cotyledon explants; test: Frequency of independent stable transgenic events and escapes in Agrobacterium-mediated MicroTom transformation (GUS staining)
Experimental: Sterilize MicroTom tomato seeds: (2.1 grams (g) of MicroTom tomato seeds, which equals approximately 900 seeds; supplied by Ball Horticultural Company, Chicago, Ill., USA. • add approximately 900 seeds to a sterile 250 milliliter (ml) flask • soak for 10 minutes (min) in the sterile 250 ml flask with ˜100 ml sterile double deionized (dd) water and then pour off the water. • add 100 ml of 70% ethanol to immerse the seeds for 1 min while stirring vigorously, pour off the ethanol, rinse the seeds 2 times with sterile dd water. • soak the seeds in 100 ml of 25% Chlorine bleach solution (chlorine bleach available under the registered trademark CLOROX®) with 3 drops of TWEEN™ 20 detergent for 10 min while stirring frequently, rinse the seeds three times with sterile dd water. • the seeds are germinated in MAGENTA™ box (available from bio-WORLD, Dublin, Ohio, United States of America) or culture box containing TGM medium (approximately 70 seeds/container), and the MAGENTA™ boxes are placed in a plastic box that is wiped down with 70% ethanol. The box cultures are placed in a dark incubator at 27° C. under the dark for 6 days (d). Seeds are distributed evenly and closely in the MAGENTA™ box, and pressed down on the media surface when placing the seeds on the germination medium.
Construct Information: The construct used in transformation contains a CaMV 35S promoter driving GUS (with GUS intron) and Nos promoter driving NPTII in Bin 19 binary vector (Frisch et al., 1995, Plant Molecular Biology 27:405-409). Agrobacterium tumefaciens strain EHA101 is used for transformation.
150 microliters (μl) of Vector 1 glycerol stock from −80° C. are placed on a fresh Luria Broth (LB)/rifampicin 50 microgram (μg)/ml/kanamycin 50 μg/ml plate on Friday of the week before transformation experiment, grown at about 28° C. for 3-4 d and stored in the refrigerator (4° C.) for the rest of the week. One day before inoculation, between 1:00 to 2:00 pm, a loopful of the bacterium cells from the freshly streaked plate is inoculated into 2 ml of liquid LB/rifampicin 50 μg/ml/kanamycin 50 μg/ml in a 17×100 Falcon tube, and grown at 28 C.° with 230 revolutions per minute (rpm) shaking. The next morning between 8:00 to 9:00 am, 0.2 ml of the overnight bacterium culture is inoculated into 2 ml of plain LB+0.2 millimeter (mM) acetosyringone in a 17×100 mm Falcon tube, and grown at about 28° C. with 230 rpm for 4 h.
Day 7 at about 2:00 pm. • 1) Cotyledon explants are isolated from seedlings 6 d after sowing seeds on TGM medium. • 2) About 25 cotyledon explants are prepared at a time by bathing them in a sterile petri dish plate containing 6 ml of Fillatti's suspension medium (FSM) liquid medium to prevent desiccation and trimming them at both ends using a #15 feather blade. Note: it is desirable to use the cotyledons that make a fairly tight “V” shape (two cotyledons that are at closed shape are acceptable to be used). • 3) Immediately after the trimming, the 25 cotyledon explants are gently placed on “feeder plates”—TCM medium. The “feeder plates” are made by overlaying 2 ml of tobacco suspension cells and a sterile WHATMAN™ filter (No. 1, Cat No. 1001090, VWR; Whatman Inc., Florham Park, N.J., United States of America) on the plates containing TCM medium. • 4) Cotyledon explants are gently poked with a sharp forceps and usually six pokes are made per explant. It is desirable that the sharp forceps gently touch the surface of explants and then make a slight movement on the touched surface in order to have a larger and shallower wounding surface that results in good transient expression. • 5) Right after poking, the cotyledons are inoculated with Agrobacterium by adding 3 ml of the Agrobacterium solution (OD600=0.1) suspended in FSM liquid medium to the top of cotyledons. The plates are incubated for 10 min at room temperature and the Agrobacterium solution is aspirated with a sterile pipette.

[2] = tested on: MicroTom tomato cotyledons; test: Tissue extreme browning of MicroTom tomato cotyledon explants after Agrobacterium inoculation; format: cell-based, Solanum lycopersicum (tomato); conditions: for Extreme Browning Rate: 3 days after selection
Excerpt: For tissue browning and transient expression data collection, 3 d after selection cotyledon explant data are collected for tissue browning under a dissecting microscope, and then for transient expression by GUS staining.

[3] = tested on: rice calli (Nipponbare); test: Rice stable callus transformation efficiency; format: cell-based; conditions: co-cultivation and recovery media
Experimental: • 1. […] Check for any off-type seeds and discard these. • 2. Surface sterilize seeds in a 50 ml sterile tube with 70% ethanol for 1 to 2 min with shaking (ethanol treatment step is optional). • 3. Remove ethanol. • 4. Add 50% (v/v) CLOROX® bleach (2.4% Na hypochlorite) or 40% (v/v) ULTRA CLOROX® (˜3.2% Na hypochlorite) and one drop of TWEEN™-20 detergent, shake for 30-40 min on a shaker at 100-200 rpm. • 5. Remove CLOROX® solution and rinse with sterile water at least three times, until all sign of TWEEN™-20 detergent (soap bubbles) is gone. • 6. Seeds are ready to plate on sterile medium. • 7. Check for bacterial and fungal contaminations at 3 and 5 days later, respectively.
• 1. Soak sterilized seeds in sterile water for 1-2 d until fully imbibed (optional step) • 2. Plate pre-soaked or sterilized mature seeds onto rice callus induction medium (MS-CIM) at 12 seeds per plate. Culture in dark at 28° C. for 6 d prior to inoculation or for 4 weeks (wks) for production of embryogenic cultures. • 3. At 4 wks, selectively excise high quality target material and transfer to MS-CIM at 25 pieces per plate. Culture in dark for 8 d at 28° C. before inoculation.
• 1. If possible, choose bacteria from the area of the plate where there are many individual single colonies of bacteria growing for inoculation. Transfer ˜7 inoculation loops full of Agrobacterium culture to a 50 ml sterile plastic tube containing 20 ml liquid MS media with acetosyringone (As) added to 200 μM (add 1 μl As stock at 40 mg/ml per ml of suspension). Vortex to completely dissolve bacteria in liquid and bring volume to 50 ml. • 2. Measure the Agrobacterium suspension OD at 660 nm. Dilute the culture to an OD660 of 0.2-0.3 (higher concentrations can offer higher transformation frequencies but can cause damage/browning in some cultivars). Induce the bacteria with acetosyringone for at least 30 min. • 3. Inoculate cultured rice seeds or rice embryogenic culture responses by immersing target material in the bacterial suspension for 30 min. • 4. Try to make sure that all target pieces are completely immersed in the bacterial solution and shake regularly to ensure that this continues to be the case. • 5.
Transfer the inoculated seeds/cultures to multiple shoot-acetosyringone (MS-As) co-cultivation medium with sterile 85 mm filter paper. Each filter paper is wetted with 1 ml of MSInoc (see recipe below) liquid media with the concentrations of MT (in μM) listed below. Fifty (50) pieces per plate; incubate at 22° C. for 3 d. • A: Filter Paper • B: Filter Paper 2MT • C: Filter Paper 10MT • D: Filter Paper 100MT • E: Filter Paper 300MT • F: Filter Paper 1000MT
• 1. After ˜36 hours of co-cultivation, transfer the co-cultivated seeds/responses to Agrobacterium inhibition medium MS-400Tim (see recipe below) (1 plate→1 plate). Culture in the dark at 28° C. for ˜7 days. • 2. Score the scorable marker control plate for gene delivery efficiency at 4 to 5 days after co-cultivation • A: Recovery Media • B: Recovery Media+2MT • C: Recovery Media+10MT • D: Recovery Media+100MT • E: Recovery Media+300MT • F: Recovery Media+1000MT
• 1. Transfer calli to selection medium (17.5 g/l mannose/5 g/l sucrose). Culture in dark at ˜28° C. for 2 to 3 weeks, observing periodically for colony proliferation and contamination. • 2. Select mannose resistant embryogenic micro-colonies under microscope when proliferating colonies are big enough to grow independently, but not so big that they have begun to grow together. […]

[4] = tested on: soybean immature seed explants; test: Soybean transformation frequency (TAQMAN positive plants); format: cell-based, Soybean (Glycine max, Jack); conditions: transgenic plants after rooting
[5] = epicatechin 50 mg/l, 6 weeks after selection
[6] = epicatechin 100 mg/l, 6 weeks after selection
[7] = epicatechin 1000 mg/l, 6 weeks after selection
[8] = N-t-butyl hydroxylamine 10 μM, 4 weeks after selection
[9] = N-t-butyl hydroxylamine 50 μM, 4 weeks after selection
[10] = N-t-butyl hydroxylamine 100 μM, 4 weeks after selection
[11] = resveratrol 50 μM, 6 weeks after selection
[12] = resveratrol 100 μM, 6 weeks after selection
[13] = resveratrol 200 μM, 6 weeks after selection

Oc1cc(O)c2c(c1)O[C@H](c1ccc(O)c(O)c1)[C@H](O)C2 [Epicatechin, epicatechin]
Frequency of escapes [1, 5]: 1.7 ± 2.4%
Frequency of independent stable transgenic events [1, 5]: 418.3 ± 25.9 B %
Frequency of escapes [1, 6]: 0.0 ± 0.0%
Frequency of independent stable transgenic events [1, 6]: 521.7 ± 16.5 A %
Frequency of escapes ([1]; epicatechin 100 mg/l, 6 weeks after selection, listed as epicatechin): 0%
toxicity to plant tissues (inferred from reduced stable transformation frequency) ([1]; epicatechin 1000 mg/l): might be toxic to plant tissues at that concentration
Frequency of escapes [1, 7]: 1.7 ± 2.4%
Frequency of independent stable transgenic events [1, 7]: 51.7 ± 2.4 D %

CC(C)(C)NO [N-t-butyl hydroxylamine]
reduction of frequency of escapes compared with the negative control ([1]; N-t-butyl hydroxylamine 10 μM): 2.5 fold
Frequency of escapes [1, 8]: 4.4 ± 5.1%
Frequency of independent stable transgenic events [1, 8]: 245.6 ± 44.0 A %
Frequency of escapes [1, 9]: 6.7 ± 3.3%
Frequency of independent stable transgenic events [1, 9]: 222.2 ± 9.6 AB %
Frequency of escapes [1, 10]: 8.9 ± 1.9%
Frequency of independent stable transgenic events [1, 10]: 205.6 ± 10.2 AB %

Oc1ccc(C=Cc2cc(O)cc(O)c2)cc1 [Resveratrol, resveratrol]
Frequency of escapes [1, 11]: 4.4 ± 7.7%
Frequency of independent stable transgenic events [1, 11]: 297.8 ± 24.6 B %
reduction of escapes compared with the negative control ([1]; resveratrol 100 μM): 5 fold
Frequency of escapes [1, 12]: 1.1 ± 1.9%
Frequency of independent stable transgenic events [1, 12]: 356.7 ± 10.0 A %
Frequency of escapes [1, 13]: 1.1 ± 1.9%
Frequency of independent stable transgenic events [1, 13]: 227.8 ± 17.1 C %

COc1ccc2[nH]cc(CCNC(C)=O)c2c1 [melatonin, N-Acetyl-5-methoxytryptamine]
Extreme Browning Rate ([2]; 10 μM melatonin in selection stage media, percentage of pokes with browning area ≧70%, Table 3): 21.5%
tissue browning reduced, compared to the negative control ([2]; 10 μM melatonin in transformation media): 3.0 fold
Extreme Browning Rate ([2]; 50 μM melatonin in selection stage media, Table 3): 11.8%
tissue browning reduced, compared to the negative control ([2]; 50 μM melatonin in transformation media): 5.5 fold
Extreme Browning Rate ([2]; 100 μM melatonin in selection stage media, Table 3 (first set)): 6.4%
tissue browning reduced, compared to the negative control ([2]; 100 μM melatonin in transformation media): 10.2 fold
Extreme Browning Rate ([2]; 100 μM melatonin, Table 4 (second set)): 22.2%
Extreme Browning Rate ([2]; 500 μM melatonin, Table 4): 21.0%
Extreme Browning Rate ([2]; 1000 μM melatonin, Table 4): 50.6%
% of stable callus sectors ([3]; melatonin 2 μM in inoculation, transgenic callus after selection, 50 explants): 148.0%
% of stable callus sectors ([3]; melatonin 10 μM in inoculation, after selection): 156.0%
% of stable callus sectors ([3]; melatonin 100 μM in inoculation, after selection): 140.0%
% of stable callus sectors ([3]; melatonin 300 μM in inoculation, after selection): 140.0%
% of stable callus sectors ([3]; melatonin 1000 μM in inoculation, after selection): 86.0%
Transformation frequency ([4]; melatonin 1 μM in infection and co-cultivation media, glyphosate selection): 7.6% +
Transformation frequency ([4]; melatonin 10 μM in infection and co-cultivation media): 7.5% +
Transformation frequency ([4]; melatonin 100 μM in infection and co-cultivation media): 4.5% +
Frequency of escapes ([1]; melatonin 10 μM, 4 weeks after selection): 1.7 ± 0.0%
Frequency of independent stable transgenic events ([1]; melatonin 10 μM, 4 weeks after selection, Table 5): 214.4% ± 6.2 A
Frequency of escapes ([1]; melatonin 50 μM, 4 weeks after selection): 0.0 ± 0.0%
Frequency of independent stable transgenic events ([1]; melatonin 50 μM, 4 weeks after selection, Table 5): 221.3% ± 47.7 A
Frequency of escapes ([1]; melatonin 100 μM, 4 weeks after selection): 0.0 ± 0.0%
Frequency of independent stable transgenic events ([1]; melatonin 100 μM, 4 weeks after selection, Table 5): 229.4% ± 55.7 A
Frequency of independent stable transgenic events ([1]; melatonin 100 μM, 4 weeks after selection, Table 6 (second set)): 213.3% ± 75.4 A
Frequency of independent stable transgenic events ([1]; melatonin 500 μM, 4 weeks after selection, Table 6): 121.7% ± 1.7 B
Frequency of independent stable transgenic events ([1]; melatonin 1000 μM, 4 weeks after selection, Table 6): 80.0% ± 14.1 B
frequency of independent stable transgenic events, increased to ([1]; melatonin at 10, 50 and 100 μM, from 88% in negative control without melatonin): 229%
